Laboratory results published in US11205502B2, “Processing method and processing apparatus for efficacy of combined drug” (Institute of radiation medicine, academy of military …, priority 2015, dated 2021).

System: human hepatocellular carcinoma cell HepG2
Experiment: MTT method, growth inhibition of HepG2 by NX, TX and NX/TX combined application; expected additive effect by equivalent dose conversion
Type: cell-based
Settings: for Efficacy of NX / Efficacy of TX: from fitted single-use equation
From the text: Title: the nitrohydroxyl compound (NX) is an anti-infectious drug. […] Taxol (TX) is an anticancer drug frequently used in clinic. In an NX/TX combined application, the growth of a human hepatocellular carcinoma cell HepG2 is inhibited in an MTT method. A method for quantitatively processing relevant indexes of synergistic/additive/antagonistic effect is described, which provides a reference for research and development of a novel anticancer compound.
Step 1: a dose-effect relationship table of dose levels of each single drug and each member in a combined group is prepared, and a respective dose-effect relationship curve equation is fitted. For dose-effect relationship data among the NX, the TX and the single drug, the NX+TX at a fixed proportion in combined use (1/1, μg/ml+ng/ml), and dose-effect relationship data of the TX at a fixed concentration (2 ng/ml)+the NX at different concentrations in the combined use, see a table 1.
Step 2: the dose is converted sequentially, and each line of the dose-effect relationship data formed into an expected additive efficacy curve band under a combined condition is calculated.
Descriptions on numerical calculation in each column of the table 2: (3) column: data in (2) column are calculated with the formula (2); (4) column: data in (3) column are calculated with the formula (1); (5) column: (1) column+(4) column; (6) column: data in (5) column are calculated with the formula (1).
Descriptions on numerical calculation in each column: (7) column: data in (1) column are calculated with the formula (1); (8) column: data in (7) column are calculated with the formula (2); (9) column: (2) column+(8) column; (10) column: data in (9) column are calculated with the formula (2); “-” indicates to be beyond the dose-effect range of the TX.
Descriptions on numerical calculation in each column: (3) column: from the table 2; (4) column: from the table 3; (5) column: from the table 1; (6) column: (5) column data/(3) column data; (7) column: (5) column data/(4) column data; (8) column: standards are referred to the previous CId calculation.

O=[N+]([O-])c1ccc(O)c2ncccc12 [NX, nitrohydroxyl compound]
Inhibition rate (NX 0.5 μg/ml single use): 5.5%
Efficacy of NX (NX 0.5 μg/ml): 5.5596%
Efficacy of NX (NX 0.6 μg/ml): 6.4726%
Efficacy of NX (NX 0.7 μg/ml): 7.7324%
Efficacy of NX (NX 0.8 μg/ml): 9.3724%
Efficacy of NX (NX 0.9 μg/ml): 11.4093%
Inhibition rate (NX 1 μg/ml single use): 14%
Efficacy of NX (NX 1 μg/ml): 13.8409%
Efficacy of NX (NX 1.2 μg/ml): 19.7842%
Efficacy of NX (NX 1.4 μg/ml): 26.8326%
Efficacy of NX (NX 1.6 μg/ml): 34.4514%
Efficacy of NX (NX 1.8 μg/ml): 42.0953%
Inhibition rate (NX 2 μg/ml single use): 49.2%
Efficacy of NX (NX 2 μg/ml): 49.3297%
Efficacy of NX (NX 2.4 μg/ml): 61.6284%
Efficacy of NX (NX 2.8 μg/ml): 70.7302%
Efficacy of NX (NX 3.2 μg/ml): 77.1469%
Efficacy of NX (NX 3.6 μg/ml): 81.6125%
Inhibition rate (NX 4 μg/ml single use): 84.9%
Efficacy of NX (NX 4 μg/ml): 84.7367%
Efficacy of NX (NX 5 μg/ml): 89.1832%
Efficacy of NX (NX 6 μg/ml): 91.2729%
Efficacy of NX (NX 7 μg/ml): 92.3603%
Inhibition rate (NX 8 μg/ml single use): 92.9%
Efficacy of NX (NX 8 μg/ml): 92.9754%
Efficacy of NX (NX 10 μg/ml): 93.5845%
Efficacy of NX (NX 12 μg/ml): 93.8519%
Efficacy of NX (NX 14 μg/ml): 93.9866%
Inhibition rate (NX 16 μg/ml single use): 94.1%
Efficacy of NX (NX 16 μg/ml): 94.0615%
NX dose limits of the additive effect (TX fixed dose 2 ng/ml): 2.1229−4.5777 μg/ml

CC(=O)O[C@H]1C(=O)[C@@]2(C)[C@H]([C@H](OC(=O)c3ccccc3)[C@]3(O)C[C@H](OC(=O)[C@H](O)[C@@H](NC(=O)c4ccccc4)c4ccccc4)C(C)=C1C3(C)C)[C@]1(OC(C)=O)CO[C@@H]1C[C@@H]2O [TX, Taxol]
inhibition at 0.0005 µg/mL (Homo sapiens, HepG2, TX 0.5 ng/ml single use, read-out: Inhibition rate): 4.5%
inhibition at 0.001 µg/mL (Homo sapiens, HepG2, TX 1 ng/ml single use, read-out: Inhibition rate): 14.1%
inhibition at 0.002 µg/mL (Homo sapiens, HepG2, TX 2 ng/ml single use, read-out: Inhibition rate): 32.5%
inhibition at 0.004 µg/mL (Homo sapiens, HepG2, TX 4 ng/ml single use, read-out: Inhibition rate): 59.3%
inhibition at 0.008 µg/mL (Homo sapiens, HepG2, TX 8 ng/ml single use, read-out: Inhibition rate): 80.3%
inhibition at 0.016 µg/mL (Homo sapiens, HepG2, TX 16 ng/ml single use, read-out: Inhibition rate): 87.4%
Efficacy of TX (TX 0.5 ng/ml): 4.9763%
Efficacy of TX (TX 0.6 ng/ml): 6.4296%
Efficacy of TX (TX 0.7 ng/ml): 8.0213%
Efficacy of TX (TX 0.8 ng/ml): 9.7270%
Efficacy of TX (TX 0.9 ng/ml): 11.5241%
Efficacy of TX (TX 1 ng/ml): 13.3922%
Efficacy of TX (TX 1.2 ng/ml): 17.2688%
Efficacy of TX (TX 1.4 ng/ml): 21.2305%
Efficacy of TX (TX 1.6 ng/ml): 25.1792%
Efficacy of TX (TX 1.8 ng/ml): 29.0423%
Efficacy of TX (TX 2 ng/ml): 32.7687%
Efficacy of TX (TX 2.4 ng/ml): 39.6901%
Efficacy of TX (TX 2.8 ng/ml): 45.8191%
Efficacy of TX (TX 3.2 ng/ml): 51.1569%
Efficacy of TX (TX 3.6 ng/ml): 55.7657%
Efficacy of TX (TX 4 ng/ml): 59.7311%
Efficacy of TX (TX 5 ng/ml): 67.3956%
Efficacy of TX (TX 6 ng/ml): 72.7395%
Efficacy of TX (TX 7 ng/ml): 76.5600%
Efficacy of TX (TX 8 ng/ml): 79.3653%
Efficacy of TX (TX 10 ng/ml): 83.1039%
Efficacy of TX (TX 12 ng/ml): 85.4029%
Efficacy of TX (TX 14 ng/ml): 86.9144%
Efficacy of TX (TX 16 ng/ml): 87.9614%
